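Cultured in 96-well plates, cells were exposed to test compound for 48 hours across five concentrations. GI50 = concentration required for 50% inhibition of growth. TGI marks complete inhibition of growth.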
Key:
Assay in all cases: NCI tumour cell line growth inhibition, 48 h
M14 melanoma = test system: M14 melanoma
KM12 colon = test system: KM12 colon
OVCAR-5 ovarian = test system: OVCAR-5 ovarian
A549 NSCLC = test system: A549 NSCLC
DU-145 prostate = test system: DU-145 prostate
MCF7 breast = test system: MCF7 breast
NCI-H522 lung = test system: NCI-H522 lung
RXF 393 renal = test system: RXF 393 renal
SN12C renal = test system: SN12C renal
A498 renal = test system: A498 renal

SMILES	GI50 (M14 melanoma) [µM]	TGI (M14 melanoma) [µM]	GI50 (KM12 colon) [µM]	TGI (KM12 colon) [µM]	GI50 (OVCAR-5 ovarian) [µM]	TGI (OVCAR-5 ovarian) [µM]	GI50 (A549 NSCLC) [µM]	TGI (A549 NSCLC) [µM]	GI50 (DU-145 prostate) [µM]	TGI (DU-145 prostate) [µM]	GI50 (MCF7 breast) [µM]	TGI (MCF7 breast) [µM]	GI50 (NCI-H522 lung) [µM]	TGI (NCI-H522 lung) [µM]	GI50 (RXF 393 renal) [µM]	TGI (RXF 393 renal) [µM]	TGI (SN12C renal) [µM]	TGI (A498 renal) [µM]	GI50 (SN12C renal) [µM]	GI50 (A498 renal) [µM]
CCOC(=O)CSc1cc(Cl)c(C)cc1S(=O)(=O)/N=C(/N=C/c1ccc([N+](=O)[O-])s1)NNC	23.1	56.8	18.5	42.2	6.02	38.4	32.7	> 100	7.45	41.2	32.6	> 100	30.2	79.7	22	> 100	–	–	–	–
Nc1ccc2n[se]nc2c1	–	> 100	–	> 100	–	> 100	–	> 100	–	–	–	–	–	–	–	> 100	> 100	> 100	–	–
CC(C)(CN1C(=O)C(Cl)=C(Cl)C1=O)CN1C(=O)C(Cl)=C(Cl)C1=O	–	38.2	–	57.4	–	42.7	–	> 72.7	–	–	–	–	–	4.91	–	14.4	29.4	> 59	–	–
Nc1nncc2c1c(Br)cn2C1OC(CO)C(O)C1O (stereo unspecified)	–	> 100	–	> 100	–	> 100	–	> 100	–	–	–	–	–	> 100	–	> 100	> 100	> 100	–	–
O=S1(=O)N2CN3CN(C2)CN1C3	–	355	–	306	–	362	–	935	–	–	–	–	–	412	–	–	158	522	–	–
CCOC(=O)C(C)(NC(=O)c1ccc(NCc2ccc3nc(NC(=O)c4ccccc4)nc(NC(=O)c4ccccc4)c3c2)cc1)C(=O)OCC	–	44.3	–	–	–	> 100	–	35.2	–	–	–	–	–	32.1	–	7.92	29.8	22.7	–	–
O=C1CC2OCC=C3CN4CCC56c7ccccc7N1C5C2C3CC46O (stereo unspecified)	–	> 100	–	> 100	–	> 100	–	> 100	–	> 100	–	> 100	–	> 100	–	–	> 100	> 100	–	–
COC1C2C[C@@H](O)CCC2C(C(=O)OCCl)C[C@H]1O (stereo partly specified)	–	> 100	–	> 100	–	–	–	> 100	–	–	–	–	–	> 100	–	> 100	> 100	> 100	–	–
O=C1c2ccccc2C(=O)c2cc3c(cc21)CS(=O)C3	–	> 100	–	> 100	–	> 100	–	> 100	–	–	–	–	–	> 100	–	> 100	43.3	–	–	–
CC(=O)Nc1ccc(C(=O)CCl)cc1	2.56	7.38	12.2	25.7	12.2	26.1	18.9	39.2	9.19	21.2	1.66	6.54	2.06	4.17	3.41	11.6	19.2	–	5.35	–
O=[N+]([O-])c1ccc(C2=Nc3ccccc3S(=O)C(c3ccccc3)C2)cc1 (stereo unspecified)	–	42	–	41.3	–	92.8	–	> 100	–	–	–	–	–	35.3	–	29	53.7	–	–	–
CCOC(=O)[C@@H](C)C[C@H](Cc1ccccc1)NC(=O)c1csc([C@@H](C[C@H](C(C)C)N(C)C(=O)[C@@H](NC(=O)[C@H]2CCCCN2C)C(C)(C)CC)OC(C)=O)n1	< 0.00167	1.8	< 0.00167	> 16.7	0.0037	> 16.7	< 0.00167	> 16.7	< 0.00167	–	< 0.00167	> 16.7	< 0.00167	0.0397	–	–	5.9	0.0114	0.00247	< 0.00167
NC(N)=N/N=C/c1c(-c2ccsc2)nc2n1CCS2	15.1	29.1	17.1	43.1	19.9	48.2	73.7	> 100	–	–	18	50.2	39.3	> 100	30.5	> 100	54.9	> 100	15.5	64.1
COc1cccc2c1-c1nc(N)c3c(OC)cccc3c1C2=O	–	> 100	–	35.3	–	> 100	–	> 100	–	> 100	–	> 100	–	> 100	–	–	> 100	> 100	–	–
CC(=O)C1CCN(c2ccccc2)C1 (stereo unspecified)	–	> 100	–	> 100	–	> 100	–	> 100	–	–	–	–	–	> 100	–	> 100	> 100	> 100	–	–
C=C1C(=O)O[C@H]2[C@H]1CC/C(COC(=O)c1cc(OC)c(OC)c(OC)c1)=C\CC[C@@]1(C)O[C@@H]21	1.27	3.05	2.26	5.82	1.76	5.08	3.05	12.1	1.23	2.47	–	–	0.589	2.25	0.299	1.27	3.12	8.56	1.24	2.57
O=C(O/N=C1\CCCC\C1=C/c1ccccc1)c1ccc([N+](=O)[O-])cc1	–	> 100	–	–	–	> 100	–	> 100	–	–	–	–	–	> 100	–	> 100	> 100	–	–	–
COc1cc([N+](=O)[O-])c(OC)cc1-c1nc2sc(C)c(C)n2c1/C(N)=N/C(=N)N	> 100	> 100	> 100	> 100	> 100	> 100	> 100	> 100	> 100	> 100	1.53	> 100	> 100	> 100	> 100	> 100	–	–	–	–
CN=c1ss/c(=N\C(=S)N(C)C)n1C	–	> 100	–	> 100	–	> 100	–	> 100	–	–	–	–	–	–	–	> 100	> 100	> 100	–	–
O=C(c1ccc(O)cc1O)C1C(c2ccc(O)cc2)OC(c2ccc(O)cc2)C1C(=O)c1ccc(O)cc1O (stereo unspecified)	–	34.5	–	> 100	–	29.7	–	> 100	–	–	–	–	–	34.3	–	45.5	–	–	–	–

From PubChem BioAssay (NCI)
